Assays:
Assay type in all cases: in vivo, Arabidopsis thaliana
[1] = test system: BRANCHED1 (BRC1) gene; assay: BRC1 gene expression by RT-PCR in sprayed seedlings; settings: Col-0 seedlings, foliar spray, 0.4% DMSO, shoots harvested 24 hours later; similarly to GR24 (FIG. 2)
Description: FIG. 2 is a boxplot representing Ct value distributions of BRC1 relative to constitutive control Ct values plotted as ΔCt. Due to the non-normal distribution of the BRC1 data, non-parametric Mann-Whitney U-tests were used to assess statistical significance. Stars indicate significant differences relative to the DMSO control (**: adjustedp-value <0.001; *: adjusted p-value <0.01; p-values adjusted for multiple-hypothesis testing with the Bonferroni correction). […]
Another experiment was performed to consider an aspect of molecular signal transduction. A number of genes in Arabidopsis thaliana are well known downstream signaling targets of the native strigolactone pathway. […]
In this experiment sterilized and stratified seeds of the A. thaliana Columbia (Col-0) were planted on growth media (Murashige and Skoog (MS) M404 with vitamins (2.2 g/L), 0.5% sucrose, 0.05% IVIES hydrate, 0.6% PhytoBlend™) for eight days in a growth chamber under 16 hours of light per day at 22° C. and 19° C. nights. […] Total RNA was extracted and RT-PCR quantification was performed using kits from Macherey-Nagel and Bioline and an ABI 7900HT instrument. […]

[2] = test system: A. thaliana Columbia (Col-0); assay: Root hair elongation on phosphate limiting media; settings: in DMSO (0.1%), images after seven days, vs DMSO (FIG. 3)
Description: FIG. 3 is a boxplot representing the maximum root hair length in the root apical zone of A. thaliana treated with the control solvent DMSO, strigolactone molecule MBS-127 in DMSO, and strigolactone molecule MBS-128 in DMSO. Stars indicate significant differences relative to the DMSO control (*: adjusted p-value <0.01; p-values adjusted for multiple-hypothesis testing); non-parametric Mann-Whitney U-tests were used to assess significance. Representative images show root hairs in the root apical zone of plants treated with the control solvent DMSO, the strigolactone molecule MBS-127 in DMSO, and the strigolactone molecule MBS-128 in DMSO. Scale bars equal 1 mm. […]
In this experiment sterilized seeds of the A. thaliana Columbia (Col-0) ecotype were planted on growth media (Murashige and Skoog (MS) M404 with vitamins (2.2 g/L), 0.5% sucrose, 0.05% IVIES hydrate, 0.6% PhytoBlend™) and grown for nine days. […] The longest root hair, within the root apical zone, was measured from the images using ImageJ. […]

[3] = test system: A. thaliana Columbia (Col-0) seedlings; assay: Desiccation stress survival assay of seedlings; settings: 50 μM in media, 0.4% DMSO, three days, 4 hours desiccation, seven days recovery (FIG. 5)
Description: Post germination desiccation is an extreme form of dehydration which can be used as a survival assay for testing abiotic stress tolerance in plants. While desiccation stress is distinct from the gradual onset of drought typically experienced in an agricultural setting, the response in the plant has many commonalities across both cases (Fernando, V. C., & Schroeder, D. F. “Role of ABA in Arabidopsis Salt, Drought, and Desiccation Tolerance,” (2016), pp. 507-518), and increased tolerance in one case can often predict tolerance in the other.
In this experiment sterilized and stratified seeds of the A. thaliana Columbia (Col-0) were planted on growth media (Murashige and Skoog (MS) M404 with vitamins (2.2 g/L), 0.5% sucrose, 0.05% IVIES hydrate, 0.6% PhytoBlend™) and grown for nine days in a growth chamber with continuous light at 22° C. The seedlings were then transplanted to same media supplemented with the control solvent DMSO, strigolactone molecule MBS-127 in DMSO, or strigolactone molecule MBS-128 in DMSO. The final concentration of DMSO in the media was 0.4% and the concentration of MBS-127 and MBS-128 was 50 μM. After three days of growth on the treatment media the seedlings were photographed and then transplanted to dry filter paper and subjected to 4 hours of desiccation stress. […]

COC(=O)/C=C/OC1C=C(C)C(=O)O1 (stereo not drawn) [MBS-127, 3-(4-Methyl-5-oxo-2,5-dihydro-furan-2-yloxy)-acrylic acid methyl ester]
expression of the BRC1 gene (ΔCt) [1]: induced expression of the BRC1 gene
root hair elongation and proliferation (maximum root hair length in the root apical zone) [2]: enhance root hair elongation and proliferation
survival and vigor of seedlings exposed to severe desiccation stress [3]: increase the survival and vigor

COC(=O)/C=C/OC1(C)C=C(C)C(=O)O1 (stereo not drawn) [MBS-128, methyl (E)-3-((2,4-dimethyl-5-oxo-2,5-dihydrofuran-2-yl)oxy)acrylate]
expression of the BRC1 gene (ΔCt) [1]: induced expression of the BRC1 gene
root hair elongation and proliferation (maximum root hair length in the root apical zone) [2]: enhance root hair elongation and proliferation
survival and vigor of seedlings exposed to severe desiccation stress [3]: increase the survival and vigor

Reference: patent US20230406821A1, “STRIGOLACTONE DERIVATIVES” (Plant Response, Inc., priority 2017, published 2023)
